These compounds were tested on Hep3B cells (assay: Epo protein produced by Hep3B cell line, ELISA / AlphaLISA). Conditions: Homo sapiens, 48 hours incubation, 100 micromolar = maximum concentration tested.
Type: cell-based
Procedure: Hep3B cells obtained from the American Type Culture Collection (ATCC) are seeded at 2×10̂4 cells/well in Dulbecco's Modified Eagle Medium (DMEM)+10% FBS in 96-well plates. Cells are incubated at 37deg C./5% CO2/90% humidity (standard cell culture incubation conditions). After overnight adherence, medium is removed and replaced with DMEM without serum containing test compound or DMSO negative control. Following 48 hours incubation, cell culture medium is collected and assayed by ELISA to quantitate Epo protein.
Hep3B cells obtained from the American Type Culture Collection (ATCC) are seeded at 2×10̂4 cells/well in Dulbecco's Modified Eagle Medium (DMEM)+10% FBS in 96-well plates. Cells are incubated at 37deg C./5% CO2/90% humidity (standard cell culture incubation conditions). After overnight adherence, medium is removed and replaced with DMEM with 2% serum containing test compound or DMSO negative control. Following 48 hours incubation, cell culture medium is collected and either frozen for later assay or assayed immediately by AlphaLISA to quantitate Epo protein.

EC50, > 100 µM:
O=C(O)CNC(=O)c1c(O)nc(-c2ccccc2)[nH]c1=O [Example 2, N-[(4-Hydroxy-6-oxo-2-phenyl-1,6-dihydro-5-pyrimidinyl)carbonyl]glycine]
O=C(O)CNC(=O)c1c(O)nc(-c2cccc(C(=O)O)c2)[nH]c1=O [Example 18, 3-(5-{[(Carboxymethyl)amino]carbonyl}-4-hydroxy-6-oxo-1,6-dihydro-2-pyrimidinyl)benzoic acid]
O=C(O)CNC(=O)c1c(O)nc(-c2cccc(C(=O)NCc3ccccc3)c2)n(Cc2ccccc2)c1=O [Example 20, N-{[4-Hydroxy-6-oxo-1-(phenylmethyl)-2-(3-{[(phenylmethyl)amino]carbonyl}phenyl)-1,6-dihydro-5-pyrimidinyl]carbonyl}glycine]
O=C(O)CNC(=O)c1c(O)nc(-c2cccc(C(=O)O)c2)n(Cc2ccccc2)c1=O [Example 26, 3-[5-{[(Carboxymethyl)amino]carbonyl}-4-hydroxy-6-oxo-1-(phenylmethyl)-1,6-dihydro-2-pyrimidinyl]benzoic acid]
CC(C)(C)c1ccc(Cn2c(-c3c(Cl)cccc3Cl)nc(O)c(C(=O)NCC(=O)O)c2=O)cc1 [Example 29, N-[(2-(2,6-Dichlorophenyl)-1-{[4-(1,1-dimethylethyl)phenyl]methyl}-4-hydroxy-6-oxo-1,6-dihydro-5-pyrimidinyl)carbonyl]glycine]
O=C(O)CNC(=O)c1c(O)nc(-c2ccccc2Cl)n(Cc2ccccc2)c1=O [Example 30, N-{[2-(2-Chlorophenyl)-4-hydroxy-6-oxo-1-(phenylmethyl)-1,6-dihydro-5-pyrimidinyl]carbonyl}glycine]
Cc1cccc(C)c1-c1nc(O)c(C(=O)NCC(=O)O)c(=O)n1Cc1ccc(C(C)(C)C)cc1 [Example 40, N-{[1-{[4-(1,1-Dimethylethyl)phenyl]methyl}-2-(2,6-dimethylphenyl)-4-hydroxy-6-oxo-1,6-dihydro-5-pyrimidinyl]carbonyl}glycine]
CC(C)(C)c1ccc(Cn2c(-c3c(Br)cccc3Br)nc(O)c(C(=O)NCC(=O)O)c2=O)cc1 [Example 42, N-[(2-(2,6-Dibromolphenyl)-1-{[4-(1,1-dimethylethyl)phenyl]methyl}-4-hydroxy-6-oxo-1,6-dihydro-5-pyrimidinyl)carbonyl]glycine]
CC(C)(C)c1ccc(Cn2c(-c3c(-c4ccccc4)cccc3-c3ccccc3)nc(O)c(C(=O)NCC(=O)O)c2=O)cc1 [Example 43, N-{[1-{[4-(1,1-Dimethylethyl)phenyl]methyl}-4-hydroxy-6-oxo-2-(1,1′:3′,1″-terphenyl-2′-yl)-1,6-dihydro-5-pyrimidinyl]carbonyl}glycine]
CC(C)(C)c1ccc(Cn2c(-c3ccccc3-c3ccccc3)nc(O)c(C(=O)NCC(=O)O)c2=O)cc1 [Example 46, N-[(2-(2-Biphenylyl)-1-{[4-(1,1-dimethylethyl)phenyl]methyl}-4-hydroxy-6-oxo-1,6-dihydro-5-pyrimidinyl)carbonyl]glycine]
CC(C)(C)c1ccc(Cn2c(-c3ccccc3-c3cc(F)cc(F)c3)nc(O)c(C(=O)NCC(=O)O)c2=O)cc1 [Example 47, N-[(2-(3′,5′-Difluoro-2-biphenylyl)-1-{[4-(1,1-dimethylethyl)phenyl]methyl}-4-hydroxy-6-oxo-1,6-dihydro-5-pyrimidinyl)carbonyl]glycine]
CC(C)CC(CC(C)C)c1nc(O)c(C(=O)NCC(=O)O)c(=O)n1Cc1ccc(C(C)(C)C)cc1 [Example 48]
CC(C)(C)c1ccc(Cn2c(-c3ccccc3-c3ccc(C(F)(F)F)cc3)nc(O)c(C(=O)NCC(=O)O)c2=O)cc1 [Example 49, N-({1-{[4-(1,1-Dimethylethyl)phenyl]methyl}-4-hydroxy-6-oxo-2-[4′-(trifluoromethyl)-2-biphenylyl]-1,6-dihydro-5-pyrimidinyl}carbonyl)glycine]
CC(C)(C)c1ccc(Cn2c(-c3c(Cl)cccc3-c3ccccc3)nc(O)c(C(=O)NCC(=O)O)c2=O)cc1 [Example 55, N-[(2-(3-Chloro-2-biphenylyl)-1-{[4-(1,1-dimethylethyl)phenyl]methyl}-4-hydroxy-6-oxo-1,6-dihydro-5-pyrimidinyl)carbonyl]glycine]
O=C(O)CNC(=O)c1c(O)nc(-c2c(Cl)cccc2-c2ccccc2)n(Cc2ccccc2Cl)c1=O [Example 56, N-({2-(3-Chloro-2-biphenylyl)-1-[(2-chlorophenyl)methyl]-4-hydroxy-6-oxo-1,6-dihydro-5-pyrimidinyl}carbonyl)glycine]
CC(C)(C)c1ccc(Cn2c(-c3c(Cl)cc(Cl)cc3Cl)nc(O)c(C(=O)NCC(=O)O)c2=O)cc1 [Example 57, N-{[1-{[4-(1,1-Dimethylethyl)phenyl]methyl}-4-hydroxy-6-oxo-2-(2,4,6-trichlorophenyl)-1,6-dihydro-5-pyrimidinyl]carbonyl}glycine]

From patent publication US20080171756A1, “N-Substituted Glycine Derivatives: Prolyl Hydroxylase Inhibitors” (priority 2007, published 2008)
